From patent publication US9668979B2, “Piperaquine microcapsules and compositions containing them” (ADARE PHARMACEUTICALS S.R.L., priority 2013, dated 2017) come the findings set out here.

This data set in a line: Compatibility of piperaquine with the coacervation process (heating/cooling cycles; assay, Karl Fischer, XRPD). The format is physicochemical. Particulars: heating/cooling cycles mimicking the process. The method, then: Water content: Karl Fischer titration: Ph. Eur. 2.5.12 Method; following sample titration conditions are applied: sample solvent: methanol: formamide 1:1; sample weight: 50 mg; the value of water content in a sample is expressed as % w/w. X-Ray Powder Diffraction (XRPD) measurements are performed on a Philips X′Pert PRO diffractometer (Bragg-Brentano geometry). A compatibility study is carried out on piperaquine to assess the compatibility of the drug with the coacervation process. In particular, piperaquine undergoes heating/cooling cycles mimicking thermal excursions of the process. Then, the following tests are performed both before and after thermal cycles to ascertain the stability of piperaquine: water content analysis (Karl Fisher test); effect of mechanical stress; crystalline structure by XRPD.

Consider `Clc1ccc2c(N3CCN(CCCN4CCN(c5ccnc6cc(Cl)ccc56)CC4)CC3)ccnc2c1` [PQP•4H2O, 4,4′-(1,3-propanediyldi-4,1-piperazinediyl) bis(7-chloroquinoline) phosphate hydrate (1:4:4)], for which the “Effect of heating/cooling cycle on the drug” value was “not affected by heating/cooling cycle”.
